Patent publication US20220313698A1, “MODULATORS OF CYSTIC FIBROSIS TRANSMEMBRANE CONDUCTANCE REGULATOR” (Vertex Pharmaceuticals Incorporated, priority 2019, published 2022)

Biological target: CFTR-mediated chloride transport (Homo sapiens, UniProt P13569)
Assay: Corrector Assay A - membrane potential dye assay (enteroid cells)
Conditions: for Corrector Assay A % activity: % of chloride transport of triple combination control (1 μM (14S)-dispiro macrocycle + 3 μM tezacaftor + 300 nM ivacaftor); for EC50: read-out: Corrector Assay A EC50, human intestinal enteroid cells, 18-24 h incubation, acute 10 μM forskolin + 300 nM ivacaftor

Row | Structure (SMILES) | Corrector Assay A % activity | EC50 [nM]
1 | CN1CCC(C2CC[C@@H]3CN(c4nc(C(C)(C)C)ccc4C(=O)NS(=O)(=O)c4cccc(n4)N2)C(C)(C)C3)CC1 (single isomer, unassigned) [Compound 240] | +++ (+++ is >60%) | 1000 to 3000
2 | CN1CCC(C2CC[C@@H]3CN(c4nc(C(C)(C)C)ccc4C(=O)NS(=O)(=O)c4cccc(n4)N2)C(C)(C)C3)CC1 (single isomer, unassigned) [Compound 241] | ++ (++ is 30-60%) | < 1000
3 | Cc1cccc(C)c1[C@H]1CC[C@@H]2CN(c3nc(C(C)(C)C)ccc3C(=O)NS(=O)(=O)c3cccc(n3)N1)C(C)(C)C2 (single isomer, unassigned) [Compound 242] | + (+ is <30%) | 
4 | Cc1cccc(C)c1[C@@H]1CC[C@@H]2CN(c3nc(C(C)(C)C)ccc3C(=O)NS(=O)(=O)c3cccc(n3)N1)C(C)(C)C2 (single isomer, unassigned) [Compound 243] | +++ (+++ is >60%) | < 1000
5 | CC(C)(C)c1ccc2c(n1)N1C[C@@H](CCC(C3CCN(C(=O)OCc4ccccc4)CC3)Nc3cccc(n3)S(=O)(=O)NC2=O)CC1(C)C (single isomer, unassigned) [Compound 254] | + (+ is <30%) | < 1000
6 | CC(C)(C)c1ccc2c(n1)N1C[C@@H](CCC(C3CCN(C(=O)OCc4ccccc4)CC3)Nc3cccc(n3)S(=O)(=O)NC2=O)CC1(C)C (single isomer, unassigned) [Compound 255] | +++ (+++ is >60%) | < 1000
7 | CC(C)(C)c1ccc2c(n1)N1CC(CCCOc3cccc(c3)S(=O)(=O)NC2=O)CC1(C)C (single isomer, unassigned) [Compound 256, 8-tert-butyl-12,12-dimethyl-18-oxa-2λ^6-thia-3,9,11-triazatetracyclo[17.3.1.111,14.05,10]tetracosa-1(22),5,7,9,19(23),20-hexaene-2,2,4-trione] | ++ (++ is 30-60%) | < 1000
8 | CC(C)(C)c1ccc2c(n1)N1CC(CCCOc3cccc(c3)S(=O)(=O)NC2=O)CC1(C)C (single isomer, unassigned) [Compound 257, 8-tert-Butyl-12,12-dimethyl-18-oxa-2λ^6-thia-3,9,11-triazatetracyclo[17.3.1.111,14.05,10]tetracosa-1(22),5,7,9,19(23),20-hexaene-2,2,4-trione] | + (+ is <30%) | 
9 | CN1c2cccc(n2)S(=O)(=O)NC(=O)c2ccc(C(C)(C)C)nc2N2C[C@@H](CCC1c1ccccc1)CC2(C)C (single isomer, unassigned) [Compound 261] | + (+ is <30%) | < 1000
10 | CC1(C)CCCc2cc3c(nc21)N1C[C@@H](CCC(c2ccccn2)Nc2cccc(n2)S(=O)(=O)NC3=O)CC1(C)C (single isomer, unassigned) [Compound 263] | +++ (+++ is >60%) | < 1000
11 | CC1(C)CCCc2cc3c(nc21)N1C[C@@H](CCC(c2ccccn2)Nc2cccc(n2)S(=O)(=O)NC3=O)CC1(C)C (single isomer, unassigned) [Compound 264] | ++ (++ is 30-60%) | < 1000
12 | CC(C)(C)c1ccc2c(n1)N1CC(CCN(c3ccccc3)C(=O)c3cccc(c3)S(=O)(=O)NC2=O)CC1(C)C (single isomer, unassigned) [Compound 266, 8-tert-butyl-12,12-dimethyl-17-phenyl-2λ^6-thia-3,9,11,17-tetraazatetracyclo[17.3.1.111,14.05,10]tetracosa-1(22),5,7,9,19(23),20-hexaene-2,2,4,18-tetrone] | + (+ is <30%) | 

Results, then the compound that gave them:

Row | Corrector Assay A % activity | EC50 [nM] | Structure (SMILES)
13 | +++ (+++ is >60%) | < 1000 | CC(C)(C)c1ccc2c(n1)N1C[C@@H](CCC(C(C)(C)C)Nc3cccc(n3)S(=O)(=O)NC2=O)CC1(C)C (single isomer, unassigned) [Compound 244]
14 | ++ (++ is 30-60%) | < 1000 | CC(C)(C)c1ccc2c(n1)N1C[C@@H](CCC(C(C)(C)C)Nc3cccc(n3)S(=O)(=O)NC2=O)CC1(C)C (single isomer, unassigned) [Compound 245]
15 | ++ (++ is 30-60%) | > 3000 | CC(C)(C)c1ccc2c(n1)N1C[C@@H](CCC(C3CCNCC3)Nc3cccc(n3)S(=O)(=O)NC2=O)CC1(C)C (single isomer, unassigned) [Compound 248]
16 | ++ (++ is 30-60%) | > 3000 | CC(C)(C)c1ccc2c(n1)N1C[C@@H](CCC(C3CCNCC3)Nc3cccc(n3)S(=O)(=O)NC2=O)CC1(C)C (single isomer, unassigned) [Compound 249]
17 | ++ (++ is 30-60%) | < 1000 | CC(C)(C)c1ccc2c(n1)N1CC(CCCNc3cc(O)cc(n3)S(=O)(=O)NC2=O)CC1(C)C (single isomer, unassigned) [Compound 250, 8-tert-butyl-21-hydroxy-12,12-dimethyl-2λ^6-thia-3,9,11,18,23-pentaazatetracyclo[17.3.1.111,14.05,10]tetracosa-1(23),5,7,9,19,21-hexaene-2,2,4-trione]
18 | + (+ is <30%) |  | CC(C)(C)c1ccc2c(n1)N1CC(CCCNc3cc(O)cc(n3)S(=O)(=O)NC2=O)CC1(C)C (single isomer, unassigned) [Compound 251, 8-tert-butyl-21-hydroxy-12,12-dimethyl-2λ^6-thia-3,9,11,18,23-pentaazatetracyclo[17.3.1.111,14.05,10]tetracosa-1(23),5,7,9,19,21-hexaene-2,2,4-trione]
19 | ++ (++ is 30-60%) | < 1000 | CC(C)(C)c1ccc2c(n1)N1CC(CCCNc3cncc(n3)S(=O)(=O)NC2=O)CC1(C)C (single isomer, unassigned) [Compound 252, 8-tert-butyl-12,12-dimethyl-2λ^6-thia-3,9,11,18,21,23-hexaazatetracyclo[17.3.1.111,14.05,10]tetracosa-1(22),5,7,9,19(23),20-hexaene-2,2,4-trione]
20 | + (+ is <30%) | > 3000 | CC(C)(C)c1ccc2c(n1)N1CC(CCCNc3cncc(n3)S(=O)(=O)NC2=O)CC1(C)C (single isomer, unassigned) [Compound 253, 8-tert-Butyl-12,12-dimethyl-2λ^6-thia-3,9,11,18,21,23-hexaazatetracyclo[17.3.1.111,14.05,10]tetracosa-1(22),5,7,9,19(23),20-hexaene-2,2,4-trione]
21 | + (+ is <30%) |  | CC(C)(C)c1ccc2c(n1)N1CC(CC1(C)C)OCCNc1cccc(n1)S(=O)(=O)NC2=O (single isomer, unassigned) [Compound 258, 8-tert-butyl-12,12-dimethyl-15-oxa-2λ^6-thia-3,9,11,18,23-pentaazatetracyclo[17.3.1.111,14.05,10]tetracosa-1(22),5(10),6,8,19(23),20-hexaene-2,2,4-trione]
22 | ++ (++ is 30-60%) | < 1000 | CC(C)(C)c1ccc2c(n1)N1CC(CC1(C)C)OCCNc1cccc(n1)S(=O)(=O)NC2=O (single isomer, unassigned) [Compound 259, 8-tert-Butyl-12,12-dimethyl-15-oxa-2λ^6-thia-3,9,11,18,23-pentaazatetracyclo[17.3.1.111,14.05,10]tetracosa-1(22),5(10),6,8,19(23),20-hexaene-2,2,4-trione]
